Assay results taken from patent US9889182B2, “Assisted enzyme replacement therapy” (The Regents of the University of California, priority 2009, dated 2018).
Marks after values point to notes of the source that are not given here.

Assays:
[1] = system: Wild-type CHO cells; test: Live-cell uptake of fluorescent guanidinoneomycin conjugate (streptavidin-Alexa-488), microscopy; format: cell-based, Chinese hamster; details: 0.4 M sucrose; 5 mM amiloride
Method: Microscopy—Cells were cultured on Lab-Tek chambered coverglass slides (Electron Microscopy Sciences) in F12 medium. After washing with PBS, cells were incubated for 1 h in 1 ml of 60 nM guanidinoneomycin coupled to streptavidin-Alexa-488 (Molecular Probes) at 37° C. Guanidinoneomycin-A488 was prepared by incubating 1 μM guanidinoneomycinbiotin with 6 μg of streptavidin-Alexa-488 in 1 ml of medium. Hoechst 33342 (2 μg/ml; Molecular Probes) was added to cells for the last 20 min of incubation. Cells were washed three times with F12 medium before live cell imaging. Microscopic images were acquired on an Olympus IX70 DeltaVision Spectris Image Deconvolution system, equipped with a temperature and atmospherically controlled stage. Images were deconvolved (10 cycles) using SoftWoRx Explorer Suite software.

[2] = system: 10T1/2 cells; test: FACS cellular uptake of BODIPY conjugates in 10T1/2 cells; format: cell-based, mouse; details: for Mean Fluorescence Intensity of treated cells according to FACS, 10T1/2: 0.5 μM of each compound for 1 hr, average of 10,000 cells; for cellular uptake compared to poly-Arg peptide BODIPY-Cys(Arg)9 / cellular uptake: FACS; for cellular uptake compared to poly-Arg peptide BODIPY-Cys(Arg)9: Table 1; for cellular uptake: slightly above autofluorescence of the cell
Method: (§1) 10T1/2 cells, an adherent non-transformed mouse fibroblast cell line, and HeLa cells, a common human cancer cell line, were purchased from ATCC and used before their 20th passage. Both cell lines were cultured in Dulbecco's modified eagle medium containing 10% fetal bovine serum at 37° C. in an 8% CO2 environment. For each experiment, cells were seeded onto 4 cm tissue culture plates (Nunc) and allowed to grow overnight to ˜80% confluency.
(§2) Compounds 1-5 identified in Table 1, below (0.5-1 μM), were added to each dish and incubated at 37° C./8% CO2 for 0.5-1 hr. Cells were then washed once in PBS, trypsinized with 500 μl ATV solution (Gibco) for 3 minutes, pelleted in a fixed angle centrifuge for 5 minutes at 5,000×G, then brought up in 1 mL PBS. Each sample was quickly (within 5 minutes) analyzed on a FACS VantageSE cell sorter (Becton-Dickinson) using the 488 nm argon/krypton laser line and a 530 nm band pass emission filter. 2,000-10,000 cells were counted per sample.

[3] = system: HeLa cells; test: FACS cellular uptake of BODIPY conjugates in HeLa cells; format: cell-based, human; details: 1 μM of each compound for 0.5 hr; average of 2,000 cells; about 10-fold higher instrumental gain than 10T1/2
Method: as §1, §2

[4] = system: WT CHO-K1 cells; test: Competition of guanidinoneomycin construct uptake by model glycans; format: cell-based, Chinese hamster
[5] = system: MPS VII fibroblasts; test: Uptake of GUS enzymes by MPS VII fibroblasts (β-glucuronidase activity); format: cell-based, human
Method: GUS activity was measured by assaying the conversion of 4-methylumbelliferyl β-d-glucuronide (MUG; Sigma) into the fluorochrome 4-methylumbelliferone. The assay was performed in 96-well plates, using 100 μl of reaction buffer containing 50 mmol/L sodium acetate (pH 5.2), 10 mmol/L EDTA, 0.01% bovine serum albumin, 0.1% Triton X-100, […] of MUG, and enzyme. After 1 hour at 37° C., fluorescent product was measured by fluorimetry (excitation at 360 nm, emission at 460 nm) and quantified using a standard curve of 4-methylumbelliferone. One unit (U) of activity is defined as the liberation of […] of 4-methylumbelliferone per hour at pH 5.2, 37° C. α-1-iduronidase activity was measured in a similar way using 4-methylumbelliferyl α-1-iduronide (Glycosynth, Warrington, UK) as substrate. The assay was performed in 10 μl of 50 mmol/L sodium formate (pH 3) buffer containing 10 mmol/L NaCl, 0.1 mg/ml bovine serum albumin, 50 μmol/l substrate, and 2 μl of enzyme.
To test whether GNeo-bGus was taken up by GUS-deficient cells, enzyme activity was measured in MPR VII fibroblasts after 2-hour incubation with various concentrations of unmodified bGus and G-Neo-bGus (see FIG. 15a). Normal HFF, MPS VII, and MPS I fibroblasts were cultured in Earl's Minimal Essential Medium supplemented with 15% of fetal bovine serum and penicillin/streptomycin (Invitrogen). Approximately 8×10^4 cells in 0.4 ml of medium were seeded in each well of a 24-well plate. After 3 days, cells were incubated in fresh medium with and without 5 mmol/L of M6P or glucose 6-phosphate (G6P) (Sigma). The cells were incubated for 2 hours at 37° C., washed twice with PBS, treated with trypsin/EDTA, and then combined with complete medium to inhibit the trypsin. […] In some experiments, cells were treated 3 hours with recombinant heparin lyases I, II, and III (5 mU/ml) in serum-free medium, and uptake was measured as described above in medium containing heparinases. Enzyme activity in the cell extracts was measured in triplicate using 5 μg of total cell protein. […]

[6] = system: MPS VII fibroblasts; test: [35S]glycosaminoglycan turnover, label-chase, MPS VII fibroblasts; format: cell-based, human; details: enzyme 2 hours, chase 24 hours
Method: To test whether internalized GUS was functionally localized in lysosomes, a label-chase format was used in which cells were incubated with ^35S-labeled sulfate for 24 hours to radiolabel the sulfated glycosaminoglycans. The medium was changed, and after 24 hours, the amount of [^35S]glycosaminoglycans that remained associated with the cells was quantitated. Normal and MPS fibroblasts were incubated in DMEM/F12 medium supplemented with 10% dialyzed fetal bovine serum in order to increase the radiospecific activity of added ^35S4. Cells were seeded in a 12-well plate, and at confluence, 50 μCi of Na[^35S]O4 (PerkinElmer) was added in 1 ml of fresh medium. After 24 hours, the cells were rinsed twice with PBS, exposed to GUS or α-iduronidase for 2 hours, rinsed twice, and then chased for 24 hours in complete growth medium. The cells were harvested with trypsin, centrifuged (500 g, 5 minutes), and washed once. The sedimented cells were then resuspended in 100 μl of RIPA buffer (Sigma) and counted by liquid scintillation spectrometry using Scintillator Ultima Gold XR (PerkinElmer).

## N=C(N)NC(=O)c1nc(Cl)c(N)nc1N [amiloride]
[1]
  effect on internalization of fluorescent guanidinoneomycin conjugate: no effect

## OC[C@H]1O[C@@](CO)(O[C@H]2O[C@H](CO)[C@@H](O)[C@H](O)[C@H]2O)[C@@H](O)[C@@H]1O [sucrose]
[1]
  effect on internalization of fluorescent guanidinoneomycin conjugate: marked decrease in internalization

## NC[C@H]1O[C@H](O[C@H]2[C@H](O)[C@@H](O[C@H]3O[C@H](CO)[C@@H](O)[C@H](N)[C@H]3O)[C@H](N)C[C@@H]2N)[C@H](N)C[C@@H]1O [tobramycin, reference compound]
[2]; relative to autofluorescence, BODIPY conjugates, FIG. 3 and Table 1
  enhancement of cellular uptake upon guanidinylation: approximately 10 fold

## BODIPY-Cys(Arg)9 (CRRRRRRRRR; N-acetyl, C-amide, BODIPY label on Cys) [BODIPY-Cys (Arg)9 (5), common poly-Arg transduction peptide, reference compound]
[3]
  Mean Fluorescence Intensity of treated cells according to FACS, HeLa: 2,000
[2]; 0.5 μM BODIPY-Cys(Arg)9 + 10 μM guanidine-neomycin B (6), 1 hr
  Mean Fluorescence Intensity, 10T1/2, in presence of 10 μM (6): 110
[2]; 0.5 μM BODIPY-Cys(Arg)9 + 50 μM guanidine-neomycin B (6), 1 hr
  Mean Fluorescence Intensity, 10T1/2, in presence of 50 μM (6): 90
[2]; 0.5 μM BODIPY-Cys(Arg)9 + 200 μM guanidine-neomycin B (6), 1 hr
  Mean Fluorescence Intensity, 10T1/2, in presence of 200 μM (6): 70
[2]
  Mean Fluorescence Intensity of treated cells according to FACS, 10T1/2: 280

## dermatan sulfate [Dermatan sulfate, DS (G)]
[4]; listed as Dermatan sulfate
  inhibition of cellular uptake of either construct (words): failed to inhibit
[4]; listed as dermatan sulfate
  inhibition of cellular uptake of either construct (words): no significant inhibition

## guanidino-Neo-BODIPY [Guanidino-Neo-BODIPY (4)]
[3]
  Mean Fluorescence Intensity of treated cells according to FACS, HeLa: 7,900
[2]
  Mean Fluorescence Intensity of treated cells according to FACS, 10T1/2: 430
  cellular uptake compared to poly-Arg peptide BODIPY-Cys(Arg)9: better cellular uptake

## guanidino-tobra-BODIPY [Guanidino-Tobra-BODIPY (2)]
[3]
  Mean Fluorescence Intensity of treated cells according to FACS, HeLa: 2,100
[2]
  Mean Fluorescence Intensity of treated cells according to FACS, 10T1/2: 240
  cellular uptake compared to poly-Arg peptide BODIPY-Cys(Arg)9: approximately the same transport efficiency

## neo-BODIPY [Neo-BODIPY (3)]
[3]
  Mean Fluorescence Intensity of treated cells according to FACS, HeLa: ~1,400^(e)
[2]
  Mean Fluorescence Intensity of treated cells according to FACS, 10T1/2: 60
  cellular uptake: poor cellular uptakes

## tobra-BODIPY [Tobra-BODIPY (1)]
[3]
  Mean Fluorescence Intensity of treated cells according to FACS, HeLa: 1,000
[2]
  Mean Fluorescence Intensity of treated cells according to FACS, 10T1/2: 60
  cellular uptake: poor cellular uptakes

B1: hGUS: human recombinant GUS (protein, UniProt P08236 23-651, looked up)
Beta-glucuronidase: LQGGMLYPQESPSRECKELDGLWSFRADFSDNRRRGFEEQWYRRPLWESGPTVDMPVPSSFNDISQDWRLRHFVGWVWYEREVILPERWTQDLRTRVVLRIGSAHSYAIVWVNGVDTLEHEGGYLPFEADISNLVQVGPLPSRLRITIAINNTLTPTTLPPGTIQYLTDTSKYPKGYFVQNTYFDFFNYAGLQRSVLLYTTPTTYIDDITVTTSVEQDSGLVNYQISVKGSNLFKLEVRLLDAENKVVANGTGTQGQLKVPGVSLWWPYLMHERPAYLYSLEVQLTAQTSLGPVSDFYTLPVGIRTVAVTKSQFLINGKPFYFHGVNKHEDADIRGKGFDWPLLVKDFNLLRWLGANAFRTSHYPYAEEVMQMCDRYGIVVIDECPGVGLALPQFFNNVSLHHHMQVMEEVVRRDKNHPAVVMWSVANEPASHLESAGYYLKMVIAHTKSLDPSRPVTFVSNSNYAADKGAPYVDVICLNSYYSWYHDYGHLELIQLQLATQFENWYKKYQKPIIQSEYGAETIAGFHQDPPLMFTEEYQKSLLEQYHLGLDQKRRKYVVGELIWNFADFMTEQSPTRVLGNKKGIFTRQRQPKSAAFLLRERYWKIANETRYPHSVAKSQCLENSLFT
[5]
  effect of heparin lyase treatment of cells on uptake: insensitive
[5]; 5 mmol/l M6P
  effect of M6P on uptake: greatly inhibited uptake
[5]; 2-hour incubation
  uptake: robust
[6]
  ED50, [35S]glycosaminoglycan turnover: ~3 mU

B2: GNeo-AP-hGUS: GNeo conjugate of alkaline phosphatase-treated hGUS (conjugate, UniProt P08236 23-651, looked up)
Beta-glucuronidase: LQGGMLYPQESPSRECKELDGLWSFRADFSDNRRRGFEEQWYRRPLWESGPTVDMPVPSSFNDISQDWRLRHFVGWVWYEREVILPERWTQDLRTRVVLRIGSAHSYAIVWVNGVDTLEHEGGYLPFEADISNLVQVGPLPSRLRITIAINNTLTPTTLPPGTIQYLTDTSKYPKGYFVQNTYFDFFNYAGLQRSVLLYTTPTTYIDDITVTTSVEQDSGLVNYQISVKGSNLFKLEVRLLDAENKVVANGTGTQGQLKVPGVSLWWPYLMHERPAYLYSLEVQLTAQTSLGPVSDFYTLPVGIRTVAVTKSQFLINGKPFYFHGVNKHEDADIRGKGFDWPLLVKDFNLLRWLGANAFRTSHYPYAEEVMQMCDRYGIVVIDECPGVGLALPQFFNNVSLHHHMQVMEEVVRRDKNHPAVVMWSVANEPASHLESAGYYLKMVIAHTKSLDPSRPVTFVSNSNYAADKGAPYVDVICLNSYYSWYHDYGHLELIQLQLATQFENWYKKYQKPIIQSEYGAETIAGFHQDPPLMFTEEYQKSLLEQYHLGLDQKRRKYVVGELIWNFADFMTEQSPTRVLGNKKGIFTRQRQPKSAAFLLRERYWKIANETRYPHSVAKSQCLENSLFT
modifications: GNeo conjugate, dephosphorylated
[6]
  ED50, [35S]glycosaminoglycan turnover: ~10 mU

B3: AP-hGUS: hGUS treated with alkaline phosphatase (protein, UniProt P08236 23-651, looked up)
Beta-glucuronidase: LQGGMLYPQESPSRECKELDGLWSFRADFSDNRRRGFEEQWYRRPLWESGPTVDMPVPSSFNDISQDWRLRHFVGWVWYEREVILPERWTQDLRTRVVLRIGSAHSYAIVWVNGVDTLEHEGGYLPFEADISNLVQVGPLPSRLRITIAINNTLTPTTLPPGTIQYLTDTSKYPKGYFVQNTYFDFFNYAGLQRSVLLYTTPTTYIDDITVTTSVEQDSGLVNYQISVKGSNLFKLEVRLLDAENKVVANGTGTQGQLKVPGVSLWWPYLMHERPAYLYSLEVQLTAQTSLGPVSDFYTLPVGIRTVAVTKSQFLINGKPFYFHGVNKHEDADIRGKGFDWPLLVKDFNLLRWLGANAFRTSHYPYAEEVMQMCDRYGIVVIDECPGVGLALPQFFNNVSLHHHMQVMEEVVRRDKNHPAVVMWSVANEPASHLESAGYYLKMVIAHTKSLDPSRPVTFVSNSNYAADKGAPYVDVICLNSYYSWYHDYGHLELIQLQLATQFENWYKKYQKPIIQSEYGAETIAGFHQDPPLMFTEEYQKSLLEQYHLGLDQKRRKYVVGELIWNFADFMTEQSPTRVLGNKKGIFTRQRQPKSAAFLLRERYWKIANETRYPHSVAKSQCLENSLFT
modifications: dephosphorylated by alkaline phosphatase
[6]
  ED50, [35S]glycosaminoglycan turnover: ~300 mU
